Reference: patent publication US20230241081A1, “Method for Treating Melanoma” (The Regents of the University of Colorado, a body corporate, priority 2020, published 2023)
Residues, ends and D or L forms follow the SMILES beside them. *: point of attachment. Cbz = O=C(OCc1ccccc1)*

Target: T1, PRL-3 (Homo sapiens, UniProt O75365)
T1 construct: endogenous in cells; host or cells: BT-20 cells
Assay: PRL-3 degradation in BT-20 cells
Type: cell-based
Conditions: proteasomal inhibitor with 100 nM compound A, FIG. 6

T1 sequence (O75365 whole entry): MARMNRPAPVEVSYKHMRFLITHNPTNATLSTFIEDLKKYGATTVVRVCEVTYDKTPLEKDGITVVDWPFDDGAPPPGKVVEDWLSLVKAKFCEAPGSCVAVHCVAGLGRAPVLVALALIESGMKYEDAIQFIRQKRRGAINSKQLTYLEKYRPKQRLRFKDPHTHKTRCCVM

SMILES: CC(C)C[C@@H](C=O)NC(=O)[C@H](CC(C)C)NC(=O)[C@H](CC(C)C)NC(=O)OCc1ccccc1 [MG-132] (Cbz-Leu-Leu-Leu-aldehyde)
- effect on compound A-mediated degradation of PRL-3: block compound A-mediated degradation of PRL-3
